We go through one compound from paper PMC3381515 (Immunity, 2011).

In this experiment the test system is TCR and CD8 on F5 T cells. Description: Micropipette adhesion frequency assay, F5 T cells vs pMHC-coated RBCs. Conditions: 32 NP68:H-2D^b/μm^2, BAPTA-AM 50 μM, PD98059 50 μM. It is filed as binding, mouse.

With `CC(=O)OCOC(=O)CN(CC(=O)OCOC(C)=O)c1ccccc1OCCOc1ccccc1N(CC(=O)OCOC(C)=O)CC(=O)OCOC(C)=O` [BAPTA-AM], the “effect on two-stage kinetics / upregulated adhesion” value is recorded as “two-stage kinetics were unaffected”.
